Source: publication PMC4138991, “Building a Better Dynasore: The Dyngo Compounds Potently Inhibit Dynamin and Endocytosis” (Traffic (Copenhagen, Denmark), 2013)

Columns and labels:
cultured CGNs = assay: HRP labeling of endocytosis pathways (electron microscopy) in CGNs; format: cell-based, rat; conditions: 30 μM, 15 min, 80 Hz 10 s
Protocol: Granule neuron cultures were prepared from the cerebella of 7‐day‐old rat pups as previously described 57. In all experiments, neurons were used between 8 and 10 days in vitro.
Granule neurons were processed for electron microscopy as previously described 40. Briefly, cells were transferred to incubation medium for 10 min and subsequently incubated with or without 30 μM 4a for 15 min. Cultures were next stimulated with 800 action potentials (80 Hz) in incubation medium supplemented with HRP (10 mg/mL) in the presence or absence of 4a. Cells were fixed in a 2% solution of glutaraldehyde in phosphate‐buffered saline for 30 min at 37°C directly after stimulation. After washing with 100 mM Tris (pH 7.4) cells were exposed to 0.1% diaminobenzidine and 0.2% H2O2 in 100 mM Tris. On development of color, cells were washed with 100 mM Tris and subsequently stained with 1% osmium tetroxide for 30 min. After washing, cells were post‐stained with 2% uranyl acetate for 15 min, then dehydrated using ethanol series and polypropylene oxide and embedded using Durcupan. Samples were sectioned, mounted on grids and viewed using a FEI Tecnai 12 transmission electron microscope. Intracellular structures that were less than 100 nm in diameter were arbitrarily designated to be synaptic vesicles, whereas larger structures were designated to be endosomes.

[1] = target: native sheep brain dynamin I (Ovis aries, UniProt A0ACI6PDC7); assay: PS liposome-stimulated (helical) dynamin I GTPase assay (Malachite Green); format: biochemical; conditions: GTP 50–250 μM, 4a 0.5–6 μM, 17 nM dynamin I, Lineweaver–Burke
Description: (§1) Recombinant dynamin I was used only for the data in Table 2. The dynamin antibodies were from: Dynamin I—in‐house YF2 antibodies, raised in rabbits against two different synthetic peptides: dynamin I 629‐647 ([…]) and dynamin I 765–778 ([…]), used at 1/2000 dilution, as previously described 53; Dynamin II—Santa Cruz (C‐18, sc‐6400, used at 1/1000) and Dynamin III—Santa Cruz (P‐13, sc‐69472, used at 1/500 dilution).
The Malachite Green colorimetric GTPase assay was as described 10. Dynamin I activity was measured in its SAI activity state or was stimulated by three different methods. As each stimulus activates dynamin to different extents, each assay required different dynamin concentrations. First, maximal dynamin activity was stimulated by sonicated PS liposomes 10. […] Finally, dynamin (500 nM) SAI activity was measured using high concentrations of dynamin, which promote its cooperative self‐assembly into rings (but not helices) 26. […] After the Vmax and Km values were determined, the data were transformed using the Lineweaver–Burke equation, 1/v = 1/Vmax + (Km/Vmax)(1/[S]).

[2] = target: T1, DynI (rec), full-length human dynamin I (Homo sapiens, UniProt Q05193); assay: PS-stimulated GTPase assay with recombinant dynamin I from Sf21 cells; format: biochemical; conditions: for IC50: DynI 20 nM, no unit in table; for DynI selectivity ratio: DynI (rec) versus DynII (rec)
T1 sequence (Q05193 1-864): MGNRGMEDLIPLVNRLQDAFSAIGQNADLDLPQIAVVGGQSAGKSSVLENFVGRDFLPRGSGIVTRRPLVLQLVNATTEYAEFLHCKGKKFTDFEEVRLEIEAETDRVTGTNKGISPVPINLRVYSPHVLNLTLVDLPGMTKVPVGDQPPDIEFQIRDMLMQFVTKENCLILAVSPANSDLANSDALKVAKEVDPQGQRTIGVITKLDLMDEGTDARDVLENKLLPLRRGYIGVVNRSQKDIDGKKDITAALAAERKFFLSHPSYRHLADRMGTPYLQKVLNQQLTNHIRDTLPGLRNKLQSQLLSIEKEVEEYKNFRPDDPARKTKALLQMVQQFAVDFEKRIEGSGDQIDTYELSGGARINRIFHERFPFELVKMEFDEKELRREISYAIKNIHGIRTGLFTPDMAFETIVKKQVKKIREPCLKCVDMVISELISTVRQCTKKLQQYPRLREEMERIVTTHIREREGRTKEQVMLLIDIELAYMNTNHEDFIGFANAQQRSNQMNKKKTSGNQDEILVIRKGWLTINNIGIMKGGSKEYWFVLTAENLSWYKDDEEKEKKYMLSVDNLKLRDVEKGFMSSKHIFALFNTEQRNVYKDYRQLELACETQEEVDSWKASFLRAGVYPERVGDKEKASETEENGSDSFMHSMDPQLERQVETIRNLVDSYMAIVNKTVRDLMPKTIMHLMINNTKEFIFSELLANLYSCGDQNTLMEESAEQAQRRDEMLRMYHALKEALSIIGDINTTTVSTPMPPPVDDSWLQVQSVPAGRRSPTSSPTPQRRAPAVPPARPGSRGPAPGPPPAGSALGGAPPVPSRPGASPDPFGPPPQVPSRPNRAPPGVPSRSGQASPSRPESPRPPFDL
Description: as §1
The Malachite Green colorimetric GTPase assay was as described 10. Dynamin I activity was measured in its SAI activity state or was stimulated by three different methods. As each stimulus activates dynamin to different extents, each assay required different dynamin concentrations. First, maximal dynamin activity was stimulated by sonicated PS liposomes 10. Purified dynamin I (10–20 nM, diluted in: 6 mM Tris–HCl, 20 mM NaCl and 0.01% Tween 80, pH 7.4) was incubated in 96‐well plates in GTPase buffer (5 mM Tris–HCl, 10 mM NaCl, 2 mM Mg^2+, 0.05% Tween 80, pH 7.4, 1 µg/mL leupeptin and 0.1 mM PMSF) and GTP 0.3 mM in the presence of test compound for 30 min at 37°C in a final assay volume of 150 μL. Reactions were terminated with 10 μL of 0.5 M ethylenediaminetetraacetic acid (EDTA) pH 7.4 and Malachite Green solution (40 μL: 2% w/v ammonium molybdate tetrahydrate, 0.15% w/v malachite green and 4 M HCl) was added for 5 min. Second, dynamin (20 nM) was stimulated by 10 µg/mL of taxol‐stabilized preformed bovine brain microtubules (Cytoskeleton, Inc) using the same protocol. Third, dynamin I (50 nM) was stimulated by 1 μM of recombinant growth factor receptor‐bound protein 2 (grb2), a SH3 (Src homology)‐containing protein that stimulates dynamin about 5–10 times less efficiently than liposomes or microtubules 54. The assay conditions were as described above. Finally, dynamin (500 nM) SAI activity was measured using high concentrations of dynamin, which promote its cooperative self‐assembly into rings (but not helices) 26. The final DMSO concentration in the GTPase or endocytosis assays was at most 3.3 or 1%, respectively, but typically was at 1%. The GTPase assay for dynamin I was unaffected by DMSO up to 3.3%. Compounds were dissolved as 30 mM stocks in 100% DMSO. These stock solutions can be stored at −20°C for several months. Compounds were subsequently diluted into solutions of 50% DMSO made up in 20 mM Tris–HCl pH 7.4 and diluted again into the final assay. For analysis of the kinetics of 4a inhibition, dynamin I at a final concentration of 17 nM was incubated with GTPase buffer containing PS (2 µg/mL) and varying amounts of GTP (50–250 μM) in the presence of 4a at a concentration range between 0.5 and 6 μM. […] After the Vmax and Km values were determined, the data were transformed using the Lineweaver–Burke equation, 1/v = 1/Vmax + (Km/Vmax)(1/[S]).

[3] = target: grb2-stimulated dynamin I (from brain) (Ovis aries, UniProt A0ACI6PDC7); assay: grb2-stimulated (ring) dynamin I GTPase assay; format: biochemical, sheep
Protocol: The Malachite Green colorimetric GTPase assay was as described 10. Dynamin I activity was measured in its SAI activity state or was stimulated by three different methods. As each stimulus activates dynamin to different extents, each assay required different dynamin concentrations. First, maximal dynamin activity was stimulated by sonicated PS liposomes 10. Purified dynamin I (10–20 nM, diluted in: 6 mM Tris–HCl, 20 mM NaCl and 0.01% Tween 80, pH 7.4) was incubated in 96‐well plates in GTPase buffer (5 mM Tris–HCl, 10 mM NaCl, 2 mM Mg^2+, 0.05% Tween 80, pH 7.4, 1 µg/mL leupeptin and 0.1 mM PMSF) and GTP 0.3 mM in the presence of test compound for 30 min at 37°C in a final assay volume of 150 μL. Reactions were terminated with 10 μL of 0.5 M ethylenediaminetetraacetic acid (EDTA) pH 7.4 and Malachite Green solution (40 μL: 2% w/v ammonium molybdate tetrahydrate, 0.15% w/v malachite green and 4 M HCl) was added for 5 min. Second, dynamin (20 nM) was stimulated by 10 µg/mL of taxol‐stabilized preformed bovine brain microtubules (Cytoskeleton, Inc) using the same protocol. […] Finally, dynamin (500 nM) SAI activity was measured using high concentrations of dynamin, which promote its cooperative self‐assembly into rings (but not helices) 26. […] After the Vmax and Km values were determined, the data were transformed using the Lineweaver–Burke equation, 1/v = 1/Vmax + (Km/Vmax)(1/[S]).

Chain of grb2-stimulated dynamin I (from brain) (A0ACI6PDC7 entry or part of it): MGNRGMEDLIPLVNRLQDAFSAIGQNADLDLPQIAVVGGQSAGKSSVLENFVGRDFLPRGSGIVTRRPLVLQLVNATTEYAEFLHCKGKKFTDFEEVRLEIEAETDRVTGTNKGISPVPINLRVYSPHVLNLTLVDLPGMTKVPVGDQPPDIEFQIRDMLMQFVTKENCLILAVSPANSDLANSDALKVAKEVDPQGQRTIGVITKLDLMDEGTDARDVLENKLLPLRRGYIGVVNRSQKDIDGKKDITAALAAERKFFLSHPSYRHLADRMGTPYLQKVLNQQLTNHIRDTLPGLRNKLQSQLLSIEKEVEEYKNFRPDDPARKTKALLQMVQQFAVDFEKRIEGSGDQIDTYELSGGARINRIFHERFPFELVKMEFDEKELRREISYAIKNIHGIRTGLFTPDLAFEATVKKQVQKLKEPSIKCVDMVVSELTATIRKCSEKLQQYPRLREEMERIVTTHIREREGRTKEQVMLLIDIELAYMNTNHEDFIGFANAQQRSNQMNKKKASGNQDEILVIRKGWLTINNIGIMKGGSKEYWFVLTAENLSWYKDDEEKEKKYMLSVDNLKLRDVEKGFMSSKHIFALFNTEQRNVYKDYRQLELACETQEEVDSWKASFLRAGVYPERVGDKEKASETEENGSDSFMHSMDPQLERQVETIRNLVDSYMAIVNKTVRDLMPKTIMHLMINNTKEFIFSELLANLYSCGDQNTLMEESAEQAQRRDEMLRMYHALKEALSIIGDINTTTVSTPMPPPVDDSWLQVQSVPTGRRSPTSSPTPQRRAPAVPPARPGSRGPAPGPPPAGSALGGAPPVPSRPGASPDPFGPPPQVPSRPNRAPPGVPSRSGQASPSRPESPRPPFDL
Chain of native sheep brain dynamin I (A0ACI6PDC7 entry or part of it): as above

| Compound | number of HRP-labeled endosomes (ADBE) (cultured CGNs) | number of HRP-labeled synaptic vesicles (neuronal CME) (cultured CGNs) | kinetics of inhibition with respect to GTP [1] | IC50 ([2]; Absence of Tween) [µM] | DynI selectivity ratio ([2]; Absence of Tween) | IC50 ([2]; Presence of Tween) [µM] | DynI selectivity ratio ([2]; Presence of Tween) | block of grb2-SH3 stimulated ring dynamin activity ([3]; presence of Tween-80) | fold reduced activity against grb2-stimulated ring dynamin versus PS-stimulated helical dynamin ([3]; without Tween-80) |
| --- | --- | --- | --- | --- | --- | --- | --- | --- | --- |
| O=C(N/N=C/c1cc(O)c(O)cc1O)c1cc2ccccc2cc1O [4a, (E)-3-Hydroxy-N'-(2,4,5-trihydroxybenzylidene) -2-naphthohydrazide] | caused a decrease in the number | significant reduction in the number of labeled synaptic vesicles | non‐competitive inhibitor | 1.1 ± 0.2 | 2.1 | 30 ± 8.2 | 3.1 |  |  |
| O=C(N/N=C/c1ccc(O)c(O)c1)c1cc2ccccc2cc1O [Dynasore, (E)-N'-(3,4-Dihydroxybenzylidene)-3-hydroxy-2-naphthohydrazide] |  |  |  |  |  |  |  | did not block | threefold less potent |
